Data on three compounds can be found in publication PMC9610492, “BRD9 Inhibition by Natural Polyphenols Targets DNA Damage/Repair and Apoptosis in Human Colon Cancer Cells” (Nutrients, 2022).

Structures are written as SMILES. Read-outs that look alike come from different tables or passages of the source.

Assay type in all cases: binding
Experiment [1] concerns the target T1, BRD9 (bromodomain-containing protein 9) (Homo sapiens, UniProt Q9H8M2).
T1 sequence (Q9H8M2 1-597): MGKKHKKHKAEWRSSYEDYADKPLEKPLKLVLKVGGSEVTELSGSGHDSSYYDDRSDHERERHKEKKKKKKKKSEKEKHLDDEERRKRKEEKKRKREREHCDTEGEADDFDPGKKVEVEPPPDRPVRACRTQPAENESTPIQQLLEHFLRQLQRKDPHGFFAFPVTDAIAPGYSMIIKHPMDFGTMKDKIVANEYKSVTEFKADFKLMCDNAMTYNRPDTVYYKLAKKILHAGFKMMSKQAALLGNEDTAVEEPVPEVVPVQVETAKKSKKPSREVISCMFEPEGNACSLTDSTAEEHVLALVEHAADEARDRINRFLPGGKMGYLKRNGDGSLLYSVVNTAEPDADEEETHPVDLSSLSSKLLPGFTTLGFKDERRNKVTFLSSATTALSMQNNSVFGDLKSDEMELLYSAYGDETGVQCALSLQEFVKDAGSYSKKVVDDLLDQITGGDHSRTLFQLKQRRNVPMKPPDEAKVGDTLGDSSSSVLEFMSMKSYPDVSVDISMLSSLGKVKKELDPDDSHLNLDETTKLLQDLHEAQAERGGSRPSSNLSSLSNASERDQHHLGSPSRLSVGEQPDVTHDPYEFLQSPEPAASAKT
In words: ITC with purified BRD9 (N = […]); BROMOscan […] inhibition at […].

The target in experiment [2] is T1, BRD9 (bromodomain-containing protein 9). The experiment is described as above. The source holds these as a separate data set.
For experiment [3] the target is unchanged. In words: BROMOscan at […], blinded positive control.

As a reminder, the Kd is the equilibrium constant for the complex coming apart. A low value points to a tighter complex. With `O=c1cc(-c2ccc(O)c(O)c2)oc2c([C@@H]3O[C@H](CO)[C@@H](O)[C@H](O)[C@H]3O)c(O)cc(O)c12` [Orientin], in experiment [1], the Kd amounted to 20 µM.
The compound `O=C(CCc1ccc(O)c(O)c1)c1c(O)cc(O)c([C@@H]2O[C@H](CO)[C@@H](O)[C@H](O)[C@H]2O)c1O` [Aspalathin] came in with a Kd in experiment [2] of 20 µM.
As usually defined, the inhibition is the drop in the measured response relative to a control, in per cent. The low end stands for a response near the control, the high end for a response far below the control. `CCn1cc(-c2cccc(C(F)(F)F)c2)c2sc(C(=N)NC3CCS(=O)(=O)CC3)cc2c1=O` [iBRD9] returned an inhibition at 10 µM in experiment [3] of 99%.
